Where two headings read alike, the source gives them in different places.

Data set [1] relates to C. pipiens Ducos strain larvae. The data set is described as follows: Larval bioassay, Ducos strain (ace-1 duplication). Format: in vivo, Culex pipiens. The settings on record: C. pipiens OP-resistant ace-1 D (duplication) larvae. The source says:
(§1) Three C. pipiens strains were used: the susceptible reference Slab strain, homozygous for ace-1 ^S [39], the resistant reference SR strain, carrying the genetical background of Slab but homozygous for the G119S mutation, allele ace-1 ^R [21] and the Ducos strain, carrying the genetical background of Slab but homozygous for an ace-1 duplication, with one ace-1^S and ace-1^R copy in tandem. Culex pipiens heterozygous larvae (Slab×SR) were obtained by crossing Slab males and SR females. Two A. gambiae reference strains (S molecular form) were used: the susceptible strain Kisumu, homozygous for ace-1 ^S, collected in Kenya in 1953 and maintained since then under laboratory conditions and the resistant Acerkis strain, carrying the genetical background of Kisumu but homozygous for an ace-1^R allele from a population collected in Bobo-Dioulasso, Burkina Faso [41].
(§2) Insecticidal activity was determined by performing bioassays on fourth-instar larvae as described in [42]. Each compound was dissolved in ethanol. Propoxur (CX) and chlorpyrifos (OP) were used as references. For each compound, we first tested mortality after a 24-hour exposure at 300 µM. […] Mortality data were analyzed by the log-probit program. This program takes into account natural mortality and provides lethal doses (LD) and slopes for each mortality line; it also computes resistance ratios (RR) for each LD, with 95% confidence intervals.

The target of data set [2] is T1, WT AChE1 (Culex pipiens, UniProt Q86GC8). The settings on record: read-out: Kic WT; dissociation constant of enzyme-inhibitor complex; five independent replicates. On the procedure:
(§3) To identify inhibitors of G119S AChE1, we screened a 3,000-compound chemical library using an assay adapted to a microplate format, [26]. […] For simplification, these compounds will be termed from now as PTF (PyrimidineTrione Furan-substituted) and were classified depending on the substituted positions (Table S1).
(§4) WT and G119S recombinant AChE1s were incubated with 0.25 mM, 0.5 mM or 1 mM inhibitor. Residual activity of G119S (A and C) and WT (B and D) AChE1 was measured in the presence of various concentrations of PTF-20 and substrates. Enzymatic activity was analyzed using the graphical method developed by Dixon, representing reciprocal rates (1/v) (A and B) or reciprocal rates multiplied by substrate concentrations ([S]/v) (C and D) as a function of inhibitor concentration. (PDF) Click here for additional data file.
(§5) Table S3. Dissociation constants (Kic) of enzyme-inhibitor complexes.
(§6) a numbers refer to Table S1
(§7) b data were measured from five independent replicates.
(§8) c competitive inhibitor reference

Data set [3] relates to C. pipiens F1 (SR×Slab) heterozygous larvae. Kind of data set: Larval bioassay, heterozygous F1 (SR×Slab). In kind it is in vivo, Culex pipiens. The following applies: C. pipiens heterozygous ace-1 R/ace-1 S larvae.
Source text: as §1, §2

In data set [4] the target is T2, G119S AChE1 (Culex pipiens, UniProt Q86GC8, G247S).
T2 construct: made in house; host or cells: Drosophila S2 cells
Kind of data set: biochemical. In kind it is biochemical.

Data set [5] deals with A. gambiae Kisumu strain larvae. The data set is described as follows: Larval bioassay, Kisumu strain (OP-susceptible). Format: in vivo, Anopheles gambiae. The settings on record: A. gambiae OP-susceptible ace-1 S/S larvae.
Source text: as §1, §2

Data set [6] concerns C. pipiens Slab strain larvae. Kind of data set: Larval bioassay, Slab strain (OP-susceptible). The following applies: for LD50 Slab: C. pipiens OP-susceptible ace-1 S/S larvae, four to five replicates; for Mortality at 300 µM, Slab: fourth-instar larvae, 24 hours exposure.
Data set [7] has as its target T2, G119S AChE1. In kind it is biochemical. The following applies: dissociation constant of enzyme-inhibitor complex; five independent replicates; read-out: Kic G119S. The protocol:
as §3
Reversibility was tested using a rapid dilution procedure. Residual activity of WT (white bars) and G119S (grey bars) AChE1 were measured after 15 min incubation in presence of inhibitors (striped bars) and are expressed as percentages of control activity. […] Assays were then diluted ten times and residual activity was measured (open bars). Means and standard errors for three independent experiments are shown. (PDF) Click here for additional data file.
as §4, §5, §6, §7, §8

In data set [8] the test system is A. gambiae Acerkis strain larvae. The data set is described as follows: Larval bioassay, Acerkis strain (OP-resistant). Format: in vivo, Anopheles gambiae. The settings on record: A. gambiae OP-resistant ace-1 R/R larvae.
Source text: as §1, §2

The test system of data set [9] is C. pipiens SR strain larvae. The data set is described as follows: Larval bioassay, SR strain (OP-resistant). The settings on record: for LD50 SR: C. pipiens OP-resistant ace-1 R/R larvae; for Mortality at 300 µM, SR: fourth-instar larvae, 24 hours exposure.
For another data set, the target named is T3, F331W AChE1 (Culex pipiens, UniProt Q86GC8, F457W).
T3 construct: made in house; host or cells: Drosophila S2 cells
In kind it is biochemical. The settings on record: F331W OP-insensitive AChE1. On the procedure:
(§9) Production of C. pipiens WT and mutated AChE1s in Drosophila S2 cells was already described. The chemical library (ChemBridge, 3,000 compounds) screening was performed in duplicate on G119S recombinant AChE1. Chemicals were made soluble in ethanol or dimethylsulphoxide (DMSO), and then diluted at 300 µM in ethanol for storage. Compounds (30 µM final concentration) were incubated for 15 min at room temperature with 100 µl of G119S recombinant AChE1 then 100 µl of substrate (acetylthiocholine, 1.6 mM, Sigma-Aldrich) was added and the residual activity was quantified by measuring the optical density at 412 nm, as described by Ellman et al.. PTF analogs were analyzed in dose-response experiments (10-fold serial dilutions from 3 mM to 30 nM), using recombinant WT and G119S AChE1 or mosquito head extracts (heads cut from frozen mosquitoes, homogenized in 400 µl PB containing 1% Triton X-100 and cleared by centrifugation at 9,000×g for 3 min). Depending on compound availability, two to five replicates were performed with distinct batches of enzyme. […] IC50 was estimated by nonlinear least square regression. IC50 was also measured on AChE1 from susceptible and resistant mosquito larvae extracts.
as §6
(§10) b IC50 values were determined from regression analysis of log-concentrations versus

Another data set has as its target T4, F290V AChE1 (Culex pipiens, UniProt Q86GC8, F416V).
T4 construct: made in house; host or cells: Drosophila S2 cells
Format: biochemical. The following applies: F290V OP-insensitive AChE1. The protocol:
as §9, §6, §10

Data set [10] has as its target T1, WT AChE1. Kind of data set: AChE assay (Ellman), dose-response on recombinant WT AChE1. In kind it is biochemical. Further details: made in house; host or cells: Drosophila S2 cells. Summed up:
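Enzyme expressed in Drosophila S2 cells; compounds tested in 10-fold serial dilutions from 3 mM to 30 nM. Ellman read-out at 412 nm with acetylthiocholine (1.6 mM as added, after 15 min room-temperature preincubation in the screening format). IC50 by nonlinear least-squares regression; 2–5 replicates with distinct enzyme batches.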
For orientation: Ellman's reagent forms a yellow product with free thiols.

The mark [11] stands for this setting: recombinant OP-insensitive G119S C. pipiens AChE1, 15 min incubation, acetylthiocholine, read-out: IC50 G119S.
The mark [12] stands for this setting: recombinant wild-type C. pipiens AChE1, 15 min incubation, acetylthiocholine, read-out: IC50 WT.

`Cc1cccc(N2C(=O)C(=Cc3ccc(C)o3)C(=O)NC2=S)c1` [PTF-25]: the “LD50 Ducos” value in data set [1] stood at 130.8 µM. Besides, the Ki came to 131 ± 3.1 µM at WT AChE1 [2] and 24.9 ± 0.6 µM on G119S AChE1 [7]. For the same compound, the “LD50 F1 (SR×Slab)” value in data set [3] is recorded as 60.0 µM. Also, the IC50 (usually the concentration at which inhibition is half-maximal) stood at 28.6 µM on G119S AChE1 [4] (setting [11]), 31.9 µM on F331W AChE1, 39.3 µM against F290V AChE1 and 442 µM on WT AChE1 [10] (setting [12]). The “LD50 Kisumu” value in [5] turned out to be 46.1 µM. Also, the “LD50 Slab” value in [6] was 160.8 µM. In data set [6], the “Mortality at 300 µM, Slab” value is recorded as 32%. In addition, in data set [8], the “LD50 Acerkis” value is 12.6 µM. Also, in data set [9], the “LD50 SR” value is recorded as 70.1 µM. Besides, the “Mortality at 300 µM, SR” value in [9] was found to be 68%.
`COc1ccc(N2C(=O)NC(=O)C(=Cc3ccc(C)o3)C2=O)cc1` [PTF-10]: the “LD50 Ducos” value in data set [1] came to 232.8 µM. The values for the Ki at WT AChE1 [2] and at G119S AChE1 [7] were 88.2 ± 4.2 µM and 64.5 ± 1.8 µM, respectively. The “LD50 F1 (SR×Slab)” value in data set [3] stood at 207.1 µM. The IC50 on G119S AChE1 [4] (setting [11]) came to 81.4 µM; on F331W AChE1, 88.2 µM; against F290V AChE1, 85.9 µM; on WT AChE1 [10] (setting [12]) it was 592 µM. Besides, in [5], the “LD50 Kisumu” value is listed as 388.3 µM. Besides, the “LD50 Slab” value in [6] is given as 300.0 µM. Also, the “Mortality at 300 µM, Slab” value in [6] is reported as 14%. The “LD50 Acerkis” value in [8] is listed as 50.6 µM. Also, the “LD50 SR” value in data set [9] was found to be 206.0 µM. In data set [9], the “Mortality at 300 µM, SR” value worked out at 87%.
With `Cc1ccc(C=C2C(=O)NC(=O)N(c3ccccc3)C2=O)o1` [PTF-3], the “LD50 Ducos” value in [1] was found to be 162.1 µM. For the same compound, the Ki at WT AChE1 [2] was 127 ± 2.8 µM; on G119S AChE1 [7], 21.8 ± 1.9 µM. The “LD50 F1 (SR×Slab)” value in [3] is listed as 151.3 µM. The concentration for half-maximal inhibition (IC50) on G119S AChE1 [4] (setting [11]) was 6.2 µM; against F331W AChE1 it was 17.8 µM; against F290V AChE1 it was 12.4 µM; on WT AChE1 [10] (setting [12]), 29.4 µM. Also, in data set [5], the “LD50 Kisumu” value is 109.7 µM. The “LD50 Slab” value in data set [6] was determined as 310.0 µM. Further, in [6], the “Mortality at 300 µM, Slab” value was 43%. Further, the “LD50 Acerkis” value in [8] is listed as 86.6 µM. For the same compound, the “LD50 SR” value in data set [9] was found to be 143.0 µM. In addition, the “Mortality at 300 µM, SR” value in data set [9] was found to be 78%.
On to `COc1cccc(N2C(=O)C(=Cc3ccc(C)o3)C(=O)NC2=S)c1` [PTF-29], for which the “LD50 Ducos” value in [1] was 409.0 µM. Also, the values for the Ki at WT AChE1 [2] and at G119S AChE1 [7] were 17.1 ± 6.8 µM and 8.9 ± 2.7 µM, respectively. Moreover, in data set [3], the “LD50 F1 (SR×Slab)” value is 105.1 µM. Also, the IC50 was found to be 33.5 µM at G119S AChE1 [4] (setting [11]), 11.2 µM against F331W AChE1, 37.4 µM on F290V AChE1 and 118 µM at WT AChE1 [10] (setting [12]). Further, the “LD50 Kisumu” value in [5] is 164.4 µM. Moreover, in [6], the “LD50 Slab” value was 946.0 µM. Also, the “Mortality at 300 µM, Slab” value in data set [6] was found to be 27%. Also, in data set [8], the “LD50 Acerkis” value is 67.7 µM. Moreover, the “LD50 SR” value in data set [9] was 398.8 µM. Moreover, the “Mortality at 300 µM, SR” value in data set [9] came to 63%.
Regarding `CNC(=O)Oc1ccccc1OC(C)C` [Propoxur, reference compound], in [1], the “LD50 Ducos” value is recorded as 56.7 µM. Moreover, the “LD50 F1 (SR×Slab)” value in data set [3] is listed as 2.3 µM. Moreover, the IC50 on G119S AChE1 [4] is 26500 µM; at WT AChE1 [10], 0.3 µM. For the same compound, the “LD50 Kisumu” value in data set [5] stood at 0.1 µM. The “LD50 Slab” value in data set [6] is listed as 1.6 µM. The mortality – broadly, the share of the test organisms that died – at 300 µM in data set [6] (Culex pipiens, 24 h, read-out: Mortality at 300 µM, Slab) amounted to 100%; in data set [9] (Culex pipiens, 24 h, read-out: Mortality at 300 µM, SR), 0%. Further, in [8], the “LD50 Acerkis” value is 689.6 µM. The “LD50 SR” value in [9] was determined as 2100 µM.
